Measurements from ChEMBL document CHEMBL5726216, “Derivatives and methods of treating hepatitis B infections” (2019).

experiment: BDNA-assay: HBV replication inhibition by the compounds of this invention could be determined in cells infected or transfected with HBV, or cells with stably integrated HBV, such as HepG2.2.15 cells (Sells et al. 1987). In this example, HepG2.2.15 cells were maintained in cell culture medium containing 10% fetal bovine serum (FBS), Geneticin, L-glutamine, penicillin and streptomycin. HepG2.2.15 cells could be seeded in 96-well plates at a density of 40,000 cells/well and be treated with serially diluted compounds at a final DMSO concentration of 0.5% either alone or in combination by adding drugs in a checker box format. Cells were incubated with compounds for three days, after which medium was removed and fresh medium containing compounds was added to cells and incubated for another three days. At day 6, supernatant was removed and treated with DNase at 37° C. for 60 minutes, followed by enzyme inactivation at 75° C. for 15 minutes. Encapsidated HBV DNA was released from the virions and covalently linked HBV polymerase by incubating in lysis buffer (Affymetrix QS0010) containing […] proteinase K at 50° C. for 40 minutes. HBV DNA was denatured by addition of 0.2 M NaOH and detected using a branched DNA (BDNA) QuantiGene assay kit according to manufacturer recommendation (Affymetrix). HBV DNA levels could also be quantified using qPCR, based on amplification of encapsidated HBV DNA extraction with QuickExtraction Solution (Epicentre Biotechnologies) and amplification of HBV DNA using HBV specific PCR probes that can hybridize to HBV DNA and a fluorescently labeled probe for quantitation. In addition, cell viability of HepG2.2.15 cells incubated with test compounds alone or in combination was determined by using CellTitre-Glo reagent according to the manufacturer protocol (Promega). The mean background signal from wells containing only culture medium was subtracted from all other samples, and percent inhibition at each compound concentration was calculated by normalizing to signals from HepG2.2.15 cells treated with 0.5% DMSO using equation E1.

Q: Which EC50 does the source give for `CN(C)N(C)C(=O)c1n[nH]c2c1CN(C(=O)Nc1cccc(Cl)c1)CC2` here?
A: < 0.1 µM

Q: Which EC50 does the source give for `CN1CC(ON(C)C(=O)c2n[nH]c3c2CN(C(=O)Nc2cccc(Cl)c2)CC3)C1` here?
A: < 0.5 µM

Q: With `CON(C)C(=O)c1n[nH]c2c1CN(C(=O)Nc1cccc(Cl)c1)CC2` as the compound, how does the EC50 read?
A: < 0.1 µM

Q: For `O=C(Nc1cccc(Cl)c1)N1CCc2[nH]nc(C(=O)N3CC(F)CO3)c2C1` (stereo not given), which EC50 is on record?
A: < 0.1 µM

Q: Which EC50 does the source give for `O=C(Nc1cccc(Cl)c1)N1CCc2[nH]nc(C(=O)N3CC(O)CO3)c2C1` (stereo not given) here?
A: < 1 µM

Q: With `CN(OCCO)C(=O)c1n[nH]c2c1CN(C(=O)Nc1cccc(Cl)c1)CC2` as the compound, how does the EC50 read?
A: < 0.5 µM

Q: For `CCCON(C)C(=O)c1n[nH]c2c1CN(C(=O)Nc1cccc(Cl)c1)CC2`, which EC50 is on record?
A: < 0.5 µM

Q: For `CN(OC1CCOC1)C(=O)c1n[nH]c2c1CN(C(=O)Nc1cccc(Cl)c1)CC2` (stereo not given), which EC50 is on record?
A: < 0.5 µM

Q: With `CON(C(=O)c1n[nH]c2c1CN(C(=O)Nc1cccc(Cl)c1)CC2)C(C)C` as the compound, how does the EC50 read?
A: < 0.5 µM

Q: With `CCCC(=O)c1n[nH]c2c1CN(C(=O)Nc1cccc(Cl)c1)CC2` as the compound, how does the EC50 read?
A: < 0.1 µM

Q: Which EC50 does the source give for `CC(C)CON(C)C(=O)c1n[nH]c2c1CN(C(=O)Nc1cccc(Cl)c1)CC2` here?
A: < 0.5 µM

Q: Which EC50 does the source give for `CC(C)ON(C)C(=O)c1n[nH]c2c1CN(C(=O)Nc1cccc(Cl)c1)CC2` here?
A: < 0.1 µM

Q: With `O=C(Nc1cccc(Cl)c1)N1CCc2[nH]nc(C(=O)N3CCCO3)c2C1` as the compound, how does the EC50 read?
A: < 0.5 µM

Q: Which EC50 does the source give for `CCC(=O)c1n[nH]c2c1CN(C(=O)Nc1cccc(Cl)c1)CC2` here?
A: < 0.5 µM

Q: For `CCN(OC)C(=O)c1n[nH]c2c1CN(C(=O)Nc1cccc(Cl)c1)CC2`, which EC50 is on record?
A: < 0.1 µM

Q: For `CN(O)C(=O)c1n[nH]c2c1CN(C(=O)Nc1cccc(Cl)c1)CC2`, which EC50 is on record?
A: < 1 µM

Q: Which EC50 does the source give for `COCCON(C)C(=O)c1n[nH]c2c1CN(C(=O)Nc1cccc(Cl)c1)CC2` here?
A: < 0.5 µM

Q: With `CCON(C)C(=O)c1n[nH]c2c1CN(C(=O)Nc1cccc(Cl)c1)CC2` as the compound, how does the EC50 read?
A: < 0.1 µM

Q: With `CN(OCC1CC1)C(=O)c1n[nH]c2c1CN(C(=O)Nc1cccc(Cl)c1)CC2` as the compound, how does the EC50 read?
A: < 0.5 µM

Q: With `CN(OC1CCC1)C(=O)c1n[nH]c2c1CN(C(=O)Nc1cccc(Cl)c1)CC2` as the compound, how does the EC50 read?
A: < 0.1 µM
